Reference: patent publication EP2861555B1, “PROCESS FOR DEPIGMENTING KERATIN MATERIALS USING NOVEL RESORCINOL-BASED COMPOUNDS” (L'Oréal, priority 2012, dated 2013)
pIC50: −log10 of the molar value.

Assays:
[1] = tested on: coculture of keratinocytes and melanocytes; experiment: Inhibitory activity on melanin synthesis (constitutive melanogenesis), ratio of thiouracil to leucine incorporation; type: cell-based; details: concentration for which 50% of the synthesis of the melanin is inhibited; thiouracil/leucine incorporation ratio relative to 100% for the control
Method: This test is carried out on a coculture of keratinocytes and melanocytes.
For the test compound, the following were determined: • the cytotoxicity, by estimating the incorporation of leucine, • the inhibitory activity on melanin synthesis, by estimating the ratio of the incorporation of thiouracil to the incorporation of leucine, relative to 100% for the control (the control corresponds to the test performed without test compound). The IC50 (concentration for which 50% of the synthesis of the melanin is inhibited) values were determined.
The test was also carried out with arbutin and kojic acid, which are known depigmenting compounds.

[2] = tested on: coculture of keratinocytes and melanocytes; experiment: Cytotoxicity on keratinocyte/melanocyte coculture, estimated by incorporation of leucine; type: cell-based
[3] = tested on: pigmented reconstructed epidermis; experiment: Test on pigmented reconstructed epidermis samples, melanin quantified by image analysis; type: cell-based, human
Method: Compositions comprising 300 µM of compound 1 in DMSO were applied to samples of pigmented reconstructed epidermis (cf. EP 1 878 790). The control is DMSO. The melanin was quantified by image analysis on histological slices after staining with Fontana Masson dye. Each sample of coloured epidermis is photographed over its entire length using a camera connected to a microscope. The melanin is thresholded and the number of melanin pixels is measured in each field using automated image analysis software. A non-parametric statistical test is performed in order to determine the significance of the measurements (Mann-Whitney test).
The pigmented reconstructed epidermis standard study model was published by: Regnier M, Duval C, Galey JB, Philippe M, Lagrange A, Tuloup R, Schmidt R, Cellular and Molecular Biology, 1999, 45, 7, 969-980: "Keratinocyte-Melanocyte co-cultures and pigmented reconstructed human epidermis: models to study modulation of melanogenesis".

| Compound | pIC50 [1] | Cytotoxicity on coculture [2] | depigmenting activity ([3]; 300 µM, pValue < 0.05 (Ttest 0.0006 in table), Mann-Whitney test) | Percentage (normalized) ([3]; topical application 300 uM in DMSO, melanin area normalized to DMSO 1/1000 control = 100) | Average area ([3]; topical application 300 uM in DMSO, melanin pixels by image analysis after Fontana Masson staining, DMSO 1/1000 control 368.5) |
| --- | --- | --- | --- | --- | --- |
| CCOC(=O)C(CC(C)C)NC(=O)C(CCO)Cc1ccc(O)cc1O (stereo not shown) | 4.00 | Non-cytotoxic |  |  |  |
| OC[C@H]1O[C@@H](Oc2ccc(O)cc2)[C@H](O)[C@@H](O)[C@@H]1O [Arbutin, reference compound] | < 3.30 | Non-cytotoxic |  |  |  |
| CCOC(=O)[C@H](Cc1ccccc1)NC(=O)C(CCO)Cc1ccc(O)cc1O (stereo partly shown) [Compound 1, ethyl N-[2-(2,4-dihydroxybenzyl)-4-hydroxybutanoyl]phenylalaninate] |  |  | Significant depigmenting activity | 71.7 | 264.2 |
| O=c1cc(CO)occ1O [Kojic acid, reference compound] | < 3.30 | 100 µM |  |  |  |

The remaining compounds from weak to strong by pIC50 [1], led by results:

| pIC50 [1] | Compound | Cytotoxicity on coculture [2] | depigmenting activity ([3]; 300 µM, pValue < 0.05 (Ttest 0.0006 in table), Mann-Whitney test) | Percentage (normalized) ([3]; topical application 300 uM in DMSO, melanin area normalized to DMSO 1/1000 control = 100) | Average area ([3]; topical application 300 uM in DMSO, melanin pixels by image analysis after Fontana Masson staining, DMSO 1/1000 control 368.5) |
| --- | --- | --- | --- | --- | --- |
| 4.60 | CCCCC(CC)CNC(=O)C(CCO)Cc1ccc(O)cc1O (stereo not shown) | 50 µM |  |  |  |
| 6.82 | CCOC(=O)C(Cc1ccccc1)NC(=O)C(CCO)Cc1ccc(O)cc1O (stereo not shown) | Non-cytotoxic |  |  |  |
